Entries after “also recorded” stand apart in the source; their conditions may differ.
Tests used:
[1] = parameters: species or system human
Excerpt: Further studies were done using heparinized plasma (two additional human donors) and with EDTA plasma (one donor). […] Human EDTA plasma was compatible with drug at a 1:32 drug/plasma ratio.

Colon 38 [2] = experiment: Experiment 14: Colon 38 s.c., saline with Tween-80, female; type: in vivo, Mouse B6 D2 F1 (BDF1)
Excerpt: (§1) Host: Mouse B6 D2 F1 (BDF1)
(§2) Inoculum Site: Subcutaneous
(§3) Vehicle: Saline with Tween-80
Treatment schedule (relative to tumor inoculation day): Days 2 and 9
(§4) Day of evaluation (relative to tumor inoculation day): 20
(§5) Parameter: Median tumor weight (MTW) estimated from tumor diameter
(§6) NCI minimal activity criteria: Percent T/C≤42
(§7) Percent T/C: Ratio of test (T) evaluation to control (C) evaluation expressed as a percentage

L-1210 Lymphoid leukemia [3] = experiment: Experiment 3: L-1210 i.p., 10^5 cells, saline with Tween-80, male; type: in vivo, Mouse CD2 F1 (CDF1)
Excerpt: (§8) Host: Mouse CD2 F1 (CDF1)
(§9) Tumor: L-1210 Lymphoid leukemia
Inoculum Site: intraperitoneal
as §3
(§10) Treatment schedule (relative to tumor inoculation day) daily on days 1-9
(§11) Day of evaluation (relative to tumor inoculation day): 30
Parameter: Mean survival time (MST) in days.
(§12) NCI minimal activity criteria: Percent T/C≥125
as §7

Colon 38 [4] = experiment: Experiment 12 (second): Colon 38 s.c., saline with Tween-80, female; type: in vivo, Mouse B6 D2 F1 (BDF1)
Excerpt: as §1, §2, §3
Treatment schedule (relative to tumor inoculation day): days 2 and 9
as §4, §5, §6, §7

L-1210 Lymphoid leukemia [5] = experiment: Experiment 8: L-1210 s.c., 10^6 cells, acid diluted with saline, female; type: in vivo, Mouse CD2 F (CDF1)
Excerpt: as §9, §2
(§13) Vehicle: Acid diluted with saline
as §10, §11
(§14) Parameter: Median survival time (MST) in days
as §12, §7

B16 Melanocarcinoma = experiment: NCI screen, B16 Melanocarcinoma, intraperitoneal (summary); type: in vivo, Mouse; conditions: for Antitumor activity in words: B16
Excerpt: (§15) The activity of the compound has been evaluated by experiments carried out under the auspices of the Division of Cancer Treatment, National Cancer Institute, employing techniques considered to be reliable indicators of chemotherapeutic utility in the treatment of forms of cancer in human patients. The details of the methodology employed in the reported experiments may be determined with reference to established NCI screening methods.
In the experiments conducted by the NCI, evaluation of activity is made on the basis of appropriate parameters, such as median survival time (MST) or change in average tumor diameter (CATD)in ocular micrometer units (OMU).

L-1210 Lymphoid leukemia [6] = experiment: Experiment 5: L-1210 i.p., 10^5 cells, acid diluted with saline, female; type: in vivo, Mouse CD2 F1 (CDF1)
Excerpt: as §8, §9
Inoculum Site: Intraperitoneal
as §13
Treatment schedule (relative to tumor inoculation day): daily on days 1-9
as §11, §14, §12, §7

CD8F1 mammary tumor = experiment: NCI screen, CD8F1 mammary tumor, subcutaneous (summary); type: in vivo, Mouse; conditions: for Antitumor activity in words: CD8F1 mammary
Excerpt: as §15, with “methods. In the experiments conducted by the NCI, evaluation of activity is made on the basis of appropriate parameters, such as median survival time (MST) or change in average tumor diameter (CATD)in ocular micrometer units (OMU).” for “methods.”

[7] = Single dose (X1) mouse range-finding and lethality study; type: in vivo, CD2 F1 mice; conditions: mouse, in vivo, iv
Description: (§16) A preclinical toxicology study of benzisoquinolinedione (NSC-308847) was done at Springborn Institute for Bioresearch, Inc. using CD2 F1 mice, Fischer 344 rats and beagle dogs. Animals were injected intravenously on a single dose (X1) or five daily dose (X5) regimen. Bulk drug was titrated with 0.5N HCl to form a salt solution of benzisoquinolinedione at a pH of 5.0-6.5. Sterile 0.9% saline was used for diluting the dosing solutions and was used for the vehicle control animals.
(§17) All mortality and toxic signs occurred on day 1 in both the X1 range-finding and lethality studies.
(§18) Defined Doses for the Single Dose Mouse Lethality

CD2 F1 mice = experiment: as above; type: in vivo
Description: as §16, §17, §18

CN(C)CCN1C(=O)c2cccc3cc(N)cc(c23)C1=O [Example 9, 1H-Benz[de]isoquinoline-1,3(2H)-dione, 5-amino-2-[2-(dimethylamino)ethyl]]
blood compatibility [1]: compatible
Median tumor weight (MTW) (Colon 38 [2]; 2.00 mg/kg i.p.): 2141
Percent T/C (Colon 38 [2]; 2.00 mg/kg i.p.): 111%
Median tumor weight (MTW) (Colon 38 [2]; 4.00 mg/kg i.p.): 1872
Percent T/C (Colon 38 [2]; 4.00 mg/kg i.p.): 97%
Median tumor weight (MTW) (Colon 38 [2]; 8.00 mg/kg i.p.): 1687
Percent T/C (Colon 38 [2]; 8.00 mg/kg i.p.): 87%
Median tumor weight (MTW) (Colon 38 [2]; 16.00 mg/kg i.p.): 2748
Percent T/C (Colon 38 [2]; 16.00 mg/kg i.p.): 142%
Median tumor weight (MTW) (Colon 38 [2]; 32.00 mg/kg i.p.): 1013
Percent T/C (Colon 38 [2]; 32.00 mg/kg i.p.): 52%
Median tumor weight (MTW) (Colon 38 [2]; 64.00 mg/kg i.p.): 1132
Percent T/C (Colon 38 [2]; 64.00 mg/kg i.p.): 58%
Mean survival time (MST) (L-1210 Lymphoid leukemia [3]; 1.00 mg/kg i.p.): 7.5 days
Percent T/C (L-1210 Lymphoid leukemia [3]; 1.00 mg/kg i.p.): 92%
Mean survival time (MST) (L-1210 Lymphoid leukemia [3]; 2.00 mg/kg i.p.): 8.3 days
Percent T/C (L-1210 Lymphoid leukemia [3]; 2.00 mg/kg i.p.): 102%
Mean survival time (MST) (L-1210 Lymphoid leukemia [3]; 4.00 mg/kg i.p.): 8.7 days
Percent T/C (L-1210 Lymphoid leukemia [3]; 4.00 mg/kg i.p.): 107%
Mean survival time (MST) (L-1210 Lymphoid leukemia [3]; 8.00 mg/kg i.p.): 10.2 days
Percent T/C (L-1210 Lymphoid leukemia [3]; 8.00 mg/kg i.p.): 125%
Mean survival time (MST) (L-1210 Lymphoid leukemia [3]; 16.00 mg/kg i.p.): 14.2 days
Percent T/C (L-1210 Lymphoid leukemia [3]; 16.00 mg/kg i.p.): 175%
Mean survival time (MST) (L-1210 Lymphoid leukemia [3]; 32.00 mg/kg i.p.): 7.8 days
Percent T/C (L-1210 Lymphoid leukemia [3]; 32.00 mg/kg i.p.): 96%
Median tumor weight (MTW) (Colon 38 [4]; 8.00 mg/kg i.p.): 1100
Percent T/C (Colon 38 [4]; 8.00 mg/kg i.p.): 88%
Median tumor weight (MTW) (Colon 38 [4]; 16.00 mg/kg i.p.): 1256
Percent T/C (Colon 38 [4]; 16.00 mg/kg i.p.): 100%
Median tumor weight (MTW) (Colon 38 [4]; 32.00 mg/kg i.p.): 1005
Percent T/C (Colon 38 [4]; 32.00 mg/kg i.p.): 80%
Median tumor weight (MTW) (Colon 38 [4]; 64.00 mg/kg i.p.): 699
Percent T/C (Colon 38 [4]; 64.00 mg/kg i.p.): 55%
Median tumor weight (MTW) (Colon 38 [4]; 128.00 mg/kg i.p.): Deaths before evaluation
Median survival time (MST) (L-1210 Lymphoid leukemia [5]; 5.00 mg/kg i.p.): 9.0 days
Percent T/C (L-1210 Lymphoid leukemia [5]; 5.00 mg/kg i.p.): 105%
Median survival time (MST) (L-1210 Lymphoid leukemia [5]; 7.00 mg/kg i.p.): 9.8 days
Percent T/C (L-1210 Lymphoid leukemia [5]; 7.00 mg/kg i.p.): 110%
Median survival time (MST) (L-1210 Lymphoid leukemia [5]; 10.00 mg/kg i.p.): 10.7 days
Percent T/C (L-1210 Lymphoid leukemia [5]; 10.00 mg/kg i.p.): 125%
Median survival time (MST) (L-1210 Lymphoid leukemia [5]; 16.00 mg/kg i.p.): 12.3 days
Percent T/C (L-1210 Lymphoid leukemia [5]; 16.00 mg/kg i.p.): 144%
Median survival time (MST) (L-1210 Lymphoid leukemia [5]; 24.00 mg/kg i.p.): 31.3 days
Percent T/C (L-1210 Lymphoid leukemia [5]; 24.00 mg/kg i.p.): 132%
increased life spans (B16 Melanocarcinoma; 16 mg/kg i.p. days 1-9, three experiments): 37-55%
Antitumor activity in words (B16 Melanocarcinoma; listed as BIDA): Activity was seen
Antitumor activity in words (B16 Melanocarcinoma; listed as the compound): at least a reproducible minimal activity; also recorded: active
Table II evaluation (B16 Melanocarcinoma; median survival time, 28 tests, full wrapped cell: Reproducible minimal activity): Reproducible minimal
Median survival time (MST) (L-1210 Lymphoid leukemia [6]; 5.00 mg/kg i.p.): 11.0 days
Percent T/C (L-1210 Lymphoid leukemia [6]; 5.00 mg/kg i.p.): 113%
Median survival time (MST) (L-1210 Lymphoid leukemia [6]; 7.00 mg/kg i.p.): 11.1 days
Percent T/C (L-1210 Lymphoid leukemia [6]; 7.00 mg/kg i.p.): 114%
Median survival time (MST) (L-1210 Lymphoid leukemia [6]; 10.00 mg/kg i.p.): 11.4 days
Percent T/C (L-1210 Lymphoid leukemia [6]; 10.00 mg/kg i.p.): 117%
Median survival time (MST) (L-1210 Lymphoid leukemia [6]; 16.00 mg/kg i.p.): 17.0 days
Percent T/C (L-1210 Lymphoid leukemia [6]; 16.00 mg/kg i.p.): 175%
Median survival time (MST) (L-1210 Lymphoid leukemia [6]; 24.00 mg/kg i.p.): 13.3 days
Percent T/C (L-1210 Lymphoid leukemia [6]; 24.00 mg/kg i.p.): 137%
Antitumor activity in words (CD8F1 mammary tumor; listed as BIDA): not active
Antitumor activity in words (CD8F1 mammary tumor; listed as the compound): not observed to be effective
Table II evaluation (CD8F1 mammary tumor; change in median tumor weight, 15 tests, full wrapped cell: Activity not confirmed): Activity not
LD50 ([7]; combined sexes): 69.1 mg/kg
LD50 ([7]; female): 71.4 mg/kg
LD50 ([7]; male): 67.1 mg/kg
body weight, mice (CD2 F1 mice; X1): Only slight weight loss
time of deaths, mice (CD2 F1 mice; X1): within a few minutes after dosing
toxic signs, mice (CD2 F1 mice; X1, listed as benzisoquinolinedione): labored breathing, struggling and exophthalmus; also recorded: loss of locomotor ability, decreased activity and rough hair coats; also recorded: All surviving animals were normal within a few hours
LD50 (CD2 F1 mice; combined sexes): 207.3 mg/m^2
Slope (lethality) (CD2 F1 mice; combined sexes): 23.1
LD10 (CD2 F1 mice; female): 62.2 mg/kg
LD50 (CD2 F1 mice; female): 214.2 mg/m^2
Slope (lethality) (CD2 F1 mice; female): 21.2
LD50 (CD2 F1 mice; male): 201.3 mg/m^2
Slope (lethality) (CD2 F1 mice; male): 26.0

Reference: US5183821A, “Method for treating leukemias using N-(2-dimethylaminoethyl)-3-amino-1,8-naphthalimide for treating leukemias and solid tumors” (priority 1991, dated 1993)
